In publication PMC2761383, “Structural and functional characteristics of xenavidin, the first frog avidin from Xenopus tropicalis” (BMC Structural Biology, 2009):

Key:
[1] = Optical biosensor analysis (Biacore X) of 2-iminobiotin binding
Description: The Biacore X optical biosensor instrument was used in the analysis, where the CM5 sensor chip was functionalized with 2-iminobiotin. The functionalization of the chip was done in three phases: First, the carboxymethyl dextrane was activated using a mixture containing 0.2 M EDC (1-ethyl-3-(3-dimethylaminopropyl) carbodiimide hydrochloride) and 0.05 M NHS (N-hydroxysuccinimide) in water. Second, in order to introduce amino groups to the surface, 1 M ethylenediamine (Fluka 03550) in water was applied. Third, a mixture of EDC (0.2 M) and 2-iminobiotin (10 mM) was applied on the surface in 25 mM Na-phosphate pH 6.5. The amount of 2-iminobiotin attached on the surface was 81 response units.
Xenavidin was injected onto the sensor chip in a 50 mM sodium carbonate buffer (pH 11.0) containing 1 M NaCl at 25°C and using a flow rate of 50 μl/min. […] The surface was regenerated between measurement cycles by injecting 20 μl of 0.5 M acetic acid followed by washing with the measurement buffer.
BIAevaluation software v. 4.1 was used for data analysis, and a global fitting method was used to analyze the data set. A period of 20 seconds from the beginning of each injection was included in the association phase fit and the dissociation rate analysis was performed for a 60-second period starting immediately after the end of the injection.

[2] = Fluorescence spectroscopy dissociation analysis of fluorescent Bf560-biotin; format: binding
Method: The Quanta Master™ spectrofluorometer (Photon Technology International Inc., Lawrenceville, NJ) with a PTI Fluorescence Master System and the software Felix 32 was used to measure the biotin-binding properties of avidin, xenavidin and streptavidin. The analyses were done in a 50 mM sodium phosphate buffer (pH 7.0) containing 650 mM NaCl at two different temperatures (25 ± 1°C and 50 ± 1°C) by measuring the reversing of quenching of the biotin-coupled fluorescent probe ArcDia™ Bf560 (ArcDia Ltd., Turku, Finland) due to competition with free biotin (100-fold molar excess) as previously described. The spectrum of Bf560-biotin in the presence and absence of avidin is shown in [Additional file 4].

proteinase K = assay: Limited proteolysis with proteinase K
Method: The stability of xenavidin against the proteinase K enzyme, which is known to cleave the L3,4-loop of avidin [41], was tested. The assay was performed in the presence or absence of biotin as previously described by Laitinen et al.. Protein samples were taken before the enzyme treatment and after adding enzyme at time points 30 min, 1 h, 2 h, 3 h, 18 h and 22 h (data not shown), and the samples were analyzed using SDS-PAGE analysis and Coomassie Brilliant Blue (Serva, Heidelberg, Germany) staining.

[3] = 2-iminobiotin chip, pH 11.0, 1 M NaCl, 25°C
[4] = competition with free biotin (100-fold molar excess), pH 7.0

| Kd [1, 3] [µM] | kass [1, 3] [M⁻¹ s⁻¹] | kdiss [1, 3] [s⁻¹] | Kd ([1]; 2-iminobiotin functionalized chip, rounded value) [µM] | Substance | Dissociation rate constant at 50°C [2, 4] | Release after 1 h at 50°C [2] [%] | stability against proteinase K (proteinase K; absence of biotin) | stability against proteinase K (proteinase K; presence of biotin) | Dissociation rate constant at 25°C ([2]; 25°C, competition with free biotin (100-fold molar excess), pH 7.0) |
| --- | --- | --- | --- | --- | --- | --- | --- | --- | --- |
| 0.085 | 200000 | 0.017 | – | Streptavidin: bacterial biotin-binding protein from Streptomyces avidinii (Biomol GmbH); control sample | 0.7 s^-1 (× 10^-5) | 5.1 | – | – | – |
| 0.102 | 94000 | 0.0096 | 0.1 | Avidin: chicken avidin, biotin-binding protein; control sample expressed in E. coli | 32.6 s^-1 (× 10^-5) | 76.5 | fragments of 10 kDa and below | protected avidin from proteolytic cleavage | 2.3 s^-1 (× 10^-5) |
